Measured values as given in paper PMC9506414, “Novel 2,6,9-Trisubstituted Purines as Potent CDK Inhibitors Alleviating Trastuzumab-Resistance of HER2-Positive Breast Cancers” (Pharmaceuticals, 2022).

What was measured:
Experiment in all cases: Kinome-wide inhibition profiling
Assay type in all cases: biochemical
MYLK3 = target: T1, MYLK3 (Homo sapiens, UniProt Q32MK0)
T1 construct: purchased Reaction Biology Corp
Protocol: (§1) In vitro CDK12/cyclinK assays for all compounds and in vitro kinome-wide inhibition profiling of 30d at 10 μM were performed by a CRO company (Reaction Biology Corp., San Diego, CA, USA).

ACK1 = target: T2, ACK1 (Homo sapiens, UniProt Q07912)
T2 construct: purchased Reaction Biology Corp
Protocol: as §1

TTBK2 = target: T3, TTBK2 (Homo sapiens, UniProt Q6IQ55)
T3 construct: purchased Reaction Biology Corp
Protocol: as §1

HCK = target: T4, HCK (Homo sapiens, UniProt P08631)
T4 construct: purchased Reaction Biology Corp
Protocol: as §1

CSNK2A1 = target: T5, CSNK2A1 (Homo sapiens, UniProt P68400)
T5 construct: purchased Reaction Biology Corp
Protocol: as §1

P38-alpha = target: T6, P38-alpha (Homo sapiens, UniProt Q16539)
T6 construct: purchased Reaction Biology Corp
T6 sequence (Q16539 whole entry): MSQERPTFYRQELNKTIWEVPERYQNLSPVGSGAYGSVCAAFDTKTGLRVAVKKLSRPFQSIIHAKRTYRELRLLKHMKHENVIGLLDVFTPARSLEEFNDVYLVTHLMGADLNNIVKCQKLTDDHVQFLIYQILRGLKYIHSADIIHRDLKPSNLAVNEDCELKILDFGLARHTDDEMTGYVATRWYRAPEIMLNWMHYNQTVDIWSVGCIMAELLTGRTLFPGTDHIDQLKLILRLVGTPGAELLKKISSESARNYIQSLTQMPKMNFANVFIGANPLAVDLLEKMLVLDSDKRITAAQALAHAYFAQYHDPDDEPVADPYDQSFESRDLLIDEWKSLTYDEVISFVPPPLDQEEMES
Protocol: as §1

CAMKK1 = target: T7, CAMKK1 (Homo sapiens, UniProt Q8N5S9)
T7 construct: purchased Reaction Biology Corp
Protocol: as §1

STK23 = target: T8, STK23 (Homo sapiens, UniProt Q9UPE1)
T8 construct: purchased Reaction Biology Corp
Protocol: as §1

GRK7 = target: T9, GRK7 (Homo sapiens, UniProt Q8WTQ7)
T9 construct: purchased Reaction Biology Corp
Protocol: as §1

FES = target: T10, FES (Homo sapiens, UniProt P07332)
T10 construct: purchased Reaction Biology Corp
Protocol: as §1

PASK = target: T11, PASK (Homo sapiens, UniProt Q96RG2)
T11 construct: purchased Reaction Biology Corp
Protocol: as §1

MRCKb = target: T12, MRCKb (Homo sapiens, UniProt Q9Y5S2)
T12 construct: purchased Reaction Biology Corp
Protocol: as §1

PRKX = target: T13, PRKX (Homo sapiens, UniProt P51817)
T13 construct: purchased Reaction Biology Corp
T13 sequence (P51817 whole entry): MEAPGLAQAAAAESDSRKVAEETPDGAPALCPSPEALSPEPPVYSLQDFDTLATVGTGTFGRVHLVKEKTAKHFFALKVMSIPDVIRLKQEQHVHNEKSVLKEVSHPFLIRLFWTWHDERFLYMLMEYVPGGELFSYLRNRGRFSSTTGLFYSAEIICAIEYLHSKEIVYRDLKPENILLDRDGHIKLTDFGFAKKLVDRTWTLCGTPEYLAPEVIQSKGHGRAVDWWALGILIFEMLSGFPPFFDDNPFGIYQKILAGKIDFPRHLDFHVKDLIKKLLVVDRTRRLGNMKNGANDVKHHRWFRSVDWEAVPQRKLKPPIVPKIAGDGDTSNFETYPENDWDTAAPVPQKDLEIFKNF
Protocol: as §1

QSK = target: T14, QSK (Homo sapiens, UniProt Q9Y2K2)
T14 construct: purchased Reaction Biology Corp
Protocol: as §1

PKN1 = target: T15, PKN1 (Homo sapiens, UniProt Q16512)
T15 construct: purchased Reaction Biology Corp
Protocol: as §1

LATS2 = target: T16, LATS2 (Homo sapiens, UniProt Q9NRM7)
T16 construct: purchased Reaction Biology Corp
Protocol: as §1

DAPK2 = target: T17, DAPK2 (Homo sapiens, UniProt Q9UIK4)
T17 construct: purchased Reaction Biology Corp
Protocol: as §1

ASK1 = target: T18, ASK1 (Homo sapiens, UniProt Q99683)
T18 construct: purchased Reaction Biology Corp
Protocol: as §1

MAP3K3 = target: T19, MAP3K3 (Homo sapiens, UniProt Q99759)
T19 construct: purchased Reaction Biology Corp
T19 sequence (Q99759 whole entry): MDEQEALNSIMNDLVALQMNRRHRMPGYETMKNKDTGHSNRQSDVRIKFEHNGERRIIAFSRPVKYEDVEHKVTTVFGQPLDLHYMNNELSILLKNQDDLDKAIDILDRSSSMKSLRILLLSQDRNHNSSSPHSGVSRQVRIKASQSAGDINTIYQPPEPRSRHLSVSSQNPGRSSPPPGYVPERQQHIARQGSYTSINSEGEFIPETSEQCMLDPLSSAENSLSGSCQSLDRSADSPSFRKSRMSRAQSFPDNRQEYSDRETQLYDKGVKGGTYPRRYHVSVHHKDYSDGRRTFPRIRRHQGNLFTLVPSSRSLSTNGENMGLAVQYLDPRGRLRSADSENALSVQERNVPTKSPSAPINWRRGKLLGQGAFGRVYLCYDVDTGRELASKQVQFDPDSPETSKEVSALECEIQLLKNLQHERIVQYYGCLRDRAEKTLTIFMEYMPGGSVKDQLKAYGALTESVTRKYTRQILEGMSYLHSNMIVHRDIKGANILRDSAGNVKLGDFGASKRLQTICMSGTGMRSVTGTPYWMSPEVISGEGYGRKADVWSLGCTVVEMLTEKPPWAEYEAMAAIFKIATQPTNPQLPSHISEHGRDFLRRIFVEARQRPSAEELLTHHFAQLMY
Protocol: as §1

CDK1/cyclinB = target: T20, CDK1/cyclinB (Homo sapiens, UniProt P06493)
T20 construct: purchased Reaction Biology Corp
T20 sequence (P06493 whole entry): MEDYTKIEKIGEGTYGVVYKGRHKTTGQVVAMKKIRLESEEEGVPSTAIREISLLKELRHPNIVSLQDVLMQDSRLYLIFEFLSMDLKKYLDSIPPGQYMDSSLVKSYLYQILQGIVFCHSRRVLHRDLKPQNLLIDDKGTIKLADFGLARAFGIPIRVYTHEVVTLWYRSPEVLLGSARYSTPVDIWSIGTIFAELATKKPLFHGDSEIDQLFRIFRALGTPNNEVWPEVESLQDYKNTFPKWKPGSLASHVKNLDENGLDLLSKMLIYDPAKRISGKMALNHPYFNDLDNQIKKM
T20 sequence (P14635 whole entry partner): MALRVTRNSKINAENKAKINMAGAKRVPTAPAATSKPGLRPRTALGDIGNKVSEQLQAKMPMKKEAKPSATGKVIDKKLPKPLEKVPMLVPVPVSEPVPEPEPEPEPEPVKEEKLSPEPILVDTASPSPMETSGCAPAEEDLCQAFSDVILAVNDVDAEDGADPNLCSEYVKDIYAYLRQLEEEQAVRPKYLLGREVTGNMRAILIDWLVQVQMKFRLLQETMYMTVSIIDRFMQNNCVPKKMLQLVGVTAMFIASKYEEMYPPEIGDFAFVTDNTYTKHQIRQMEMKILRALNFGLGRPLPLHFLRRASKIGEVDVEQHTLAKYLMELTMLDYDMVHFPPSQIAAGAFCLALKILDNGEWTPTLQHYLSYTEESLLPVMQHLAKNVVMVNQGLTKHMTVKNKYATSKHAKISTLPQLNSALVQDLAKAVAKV
Protocol: as §1

GRK5 = target: T21, GRK5 (Homo sapiens, UniProt P34947)
T21 construct: purchased Reaction Biology Corp
Protocol: as §1

CDK4/cyclinD1 = target: T22, CDK4/cyclinD1 (Homo sapiens, UniProt P11802)
T22 construct: purchased Reaction Biology Corp
Protocol: as §1

TGFBR1 = target: T23, TGFBR1 (Homo sapiens, UniProt P36897)
T23 construct: purchased Reaction Biology Corp
Protocol: as §1

RIPK5 = target: T24, RIPK5 (Homo sapiens, UniProt Q6XUX3)
T24 construct: purchased Reaction Biology Corp
Protocol: as §1

LATS1 = target: T25, LATS1 (Homo sapiens, UniProt O95835)
T25 construct: purchased Reaction Biology Corp
Protocol: as §1

ITK = target: T26, ITK (Homo sapiens, UniProt Q08881)
T26 construct: purchased Reaction Biology Corp
Protocol: as §1

LYN B = target: T27, LYN B (Homo sapiens, UniProt P07948)
T27 construct: purchased Reaction Biology Corp
Protocol: as §1

NLK = target: T28, NLK (Homo sapiens, UniProt Q9UBE8)
T28 construct: purchased Reaction Biology Corp
Protocol: as §1

PCTK3 = target: T29, PCTK3 (Homo sapiens, UniProt Q07002)
T29 construct: purchased Reaction Biology Corp
T29 sequence (Q07002 whole entry): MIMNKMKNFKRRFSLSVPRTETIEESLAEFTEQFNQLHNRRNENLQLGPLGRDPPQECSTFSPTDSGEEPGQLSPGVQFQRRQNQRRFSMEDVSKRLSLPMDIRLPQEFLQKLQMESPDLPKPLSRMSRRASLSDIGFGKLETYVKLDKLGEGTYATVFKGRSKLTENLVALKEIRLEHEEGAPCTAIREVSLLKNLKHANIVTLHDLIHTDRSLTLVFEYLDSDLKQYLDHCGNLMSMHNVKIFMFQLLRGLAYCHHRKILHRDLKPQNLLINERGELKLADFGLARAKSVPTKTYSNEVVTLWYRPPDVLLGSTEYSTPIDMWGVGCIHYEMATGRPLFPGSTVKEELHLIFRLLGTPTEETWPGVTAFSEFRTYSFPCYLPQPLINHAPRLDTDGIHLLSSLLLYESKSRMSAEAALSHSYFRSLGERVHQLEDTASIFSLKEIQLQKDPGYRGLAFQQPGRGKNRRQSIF
T29 sequence (Q8ND76 whole entry partner): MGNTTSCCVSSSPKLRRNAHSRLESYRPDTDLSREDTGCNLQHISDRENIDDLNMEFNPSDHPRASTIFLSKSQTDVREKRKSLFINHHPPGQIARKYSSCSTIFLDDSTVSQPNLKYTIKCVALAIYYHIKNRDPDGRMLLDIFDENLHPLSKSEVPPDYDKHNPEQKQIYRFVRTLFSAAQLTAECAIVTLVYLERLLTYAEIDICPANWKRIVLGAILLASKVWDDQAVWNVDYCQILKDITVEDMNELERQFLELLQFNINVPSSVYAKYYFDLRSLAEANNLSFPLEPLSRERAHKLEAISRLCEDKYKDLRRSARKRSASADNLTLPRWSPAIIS
Protocol: as §1

ARAF = target: T30, ARAF (Homo sapiens, UniProt P10398)
T30 construct: purchased Reaction Biology Corp
Protocol: as §1

PLK2 = target: T31, PLK2 (Homo sapiens, UniProt Q9NYY3)
T31 construct: purchased Reaction Biology Corp
Protocol: as §1

PRKG2 = target: T32, PRKG2 (Homo sapiens, UniProt Q13237)
T32 construct: purchased Reaction Biology Corp
Protocol: as §1

P38-beta = target: T33, P38-beta (Homo sapiens, UniProt Q15759)
T33 construct: purchased Reaction Biology Corp
T33 sequence (Q15759 whole entry): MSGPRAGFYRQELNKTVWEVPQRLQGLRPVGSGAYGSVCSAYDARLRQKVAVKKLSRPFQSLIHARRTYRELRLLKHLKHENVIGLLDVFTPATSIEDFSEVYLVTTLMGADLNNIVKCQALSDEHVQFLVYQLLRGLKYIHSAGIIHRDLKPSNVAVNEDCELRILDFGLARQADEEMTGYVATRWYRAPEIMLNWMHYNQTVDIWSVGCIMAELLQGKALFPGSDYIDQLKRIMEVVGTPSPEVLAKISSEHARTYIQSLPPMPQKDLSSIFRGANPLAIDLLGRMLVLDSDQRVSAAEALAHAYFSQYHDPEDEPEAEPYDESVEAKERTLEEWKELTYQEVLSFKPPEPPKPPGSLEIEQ
Protocol: as §1

FLT3 = target: T34, FLT3 (Homo sapiens, UniProt P36888)
T34 construct: purchased Reaction Biology Corp
Protocol: as §1

KSR1 = target: T35, KSR1 (Homo sapiens, UniProt Q8IVT5)
T35 construct: purchased Reaction Biology Corp
Protocol: as §1

TBK1 = target: T36, TBK1 (Homo sapiens, UniProt Q9UHD2)
T36 construct: purchased Reaction Biology Corp
T36 sequence (Q9UHD2 whole entry): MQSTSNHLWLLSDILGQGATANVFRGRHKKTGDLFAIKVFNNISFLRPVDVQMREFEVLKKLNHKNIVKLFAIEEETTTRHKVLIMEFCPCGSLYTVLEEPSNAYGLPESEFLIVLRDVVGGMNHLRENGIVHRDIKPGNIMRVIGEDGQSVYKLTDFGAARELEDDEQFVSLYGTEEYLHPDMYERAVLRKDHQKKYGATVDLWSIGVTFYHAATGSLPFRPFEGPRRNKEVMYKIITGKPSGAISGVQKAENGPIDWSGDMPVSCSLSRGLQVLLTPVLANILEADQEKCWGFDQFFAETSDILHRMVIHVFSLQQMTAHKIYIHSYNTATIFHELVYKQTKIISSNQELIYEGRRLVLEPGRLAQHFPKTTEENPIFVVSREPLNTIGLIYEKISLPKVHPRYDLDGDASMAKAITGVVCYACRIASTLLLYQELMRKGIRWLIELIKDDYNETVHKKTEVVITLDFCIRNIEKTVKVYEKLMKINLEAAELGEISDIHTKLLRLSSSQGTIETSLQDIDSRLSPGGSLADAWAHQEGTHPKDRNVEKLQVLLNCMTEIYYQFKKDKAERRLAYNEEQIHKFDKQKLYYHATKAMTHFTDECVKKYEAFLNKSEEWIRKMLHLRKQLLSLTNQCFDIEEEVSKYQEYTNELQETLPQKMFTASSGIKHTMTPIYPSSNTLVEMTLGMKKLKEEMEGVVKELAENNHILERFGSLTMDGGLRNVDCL
Protocol: as §1

MST1 = target: T37, MST1 (Homo sapiens, UniProt Q13043)
T37 construct: purchased Reaction Biology Corp
Protocol: as §1

TSSK6 = target: T38, TSSK6 (Homo sapiens, UniProt Q9BXA6)
T38 construct: purchased Reaction Biology Corp
Protocol: as §1

PKCzeta = target: T39, PKCzeta (Homo sapiens, UniProt Q05513)
T39 construct: purchased Reaction Biology Corp
Protocol: as §1

PRKD3 = target: T40, PRKD3 (Homo sapiens, UniProt O94806)
T40 construct: purchased Reaction Biology Corp
T40 sequence (O94806 whole entry): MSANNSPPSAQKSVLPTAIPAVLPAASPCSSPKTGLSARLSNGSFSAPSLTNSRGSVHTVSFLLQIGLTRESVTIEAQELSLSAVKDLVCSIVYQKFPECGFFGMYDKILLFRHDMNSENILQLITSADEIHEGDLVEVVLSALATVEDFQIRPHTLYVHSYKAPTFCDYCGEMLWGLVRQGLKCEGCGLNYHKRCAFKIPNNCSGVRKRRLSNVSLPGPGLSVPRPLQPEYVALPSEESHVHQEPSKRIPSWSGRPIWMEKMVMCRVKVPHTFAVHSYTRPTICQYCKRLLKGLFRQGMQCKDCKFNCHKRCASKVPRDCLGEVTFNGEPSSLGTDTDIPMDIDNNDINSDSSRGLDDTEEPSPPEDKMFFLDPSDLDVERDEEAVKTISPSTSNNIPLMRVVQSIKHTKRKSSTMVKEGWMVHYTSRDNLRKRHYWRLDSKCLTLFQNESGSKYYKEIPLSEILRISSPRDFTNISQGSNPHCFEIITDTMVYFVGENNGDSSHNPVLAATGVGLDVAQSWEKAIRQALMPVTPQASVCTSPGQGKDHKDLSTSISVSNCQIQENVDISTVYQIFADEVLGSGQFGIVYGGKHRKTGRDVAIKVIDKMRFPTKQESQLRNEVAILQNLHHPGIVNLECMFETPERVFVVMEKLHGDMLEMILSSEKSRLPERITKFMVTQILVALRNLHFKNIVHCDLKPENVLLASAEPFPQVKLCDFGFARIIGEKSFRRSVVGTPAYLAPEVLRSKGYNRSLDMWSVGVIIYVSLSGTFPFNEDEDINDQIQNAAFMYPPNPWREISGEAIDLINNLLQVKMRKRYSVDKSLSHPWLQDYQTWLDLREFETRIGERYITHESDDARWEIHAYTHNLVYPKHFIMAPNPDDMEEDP
Protocol: as §1

ROS1 = target: T41, ROS1 (Homo sapiens, UniProt P08922)
T41 construct: purchased Reaction Biology Corp
Protocol: as §1

SRPK2 = target: T42, SRPK2 (Homo sapiens, UniProt P78362)
T42 construct: purchased Reaction Biology Corp
Protocol: as §1

MLK4 = target: T43, MLK4 (Homo sapiens, UniProt Q5TCX8)
T43 construct: purchased Reaction Biology Corp
Protocol: as §1

GRK1 = target: T44, GRK1 (Homo sapiens, UniProt Q15835)
T44 construct: purchased Reaction Biology Corp
Protocol: as §1

CCn1cnc2c(NCc3ccc(-c4ccccn4)nc3)nc(-c3ccc(N)nc3)nc21 [Compound 30d, N-([2,2′-Bipyridin]-5-ylmethyl)-2-(6-aminopyridin-3-yl)-9-ethyl-9H-purin-6-amine]
remaining activity at 10 µM (MYLK3): 105%
remaining activity at 10 µM (ACK1): 13.7%
remaining activity at 10 µM (TTBK2): 97.3%
remaining activity at 10 µM (HCK): 46.5%
remaining activity at 10 µM (CSNK2A1): 84.2%
remaining activity at 10 µM (P38-alpha): 84.2%
remaining activity at 10 µM (CAMKK1): 18.7%
remaining activity at 10 µM (STK23): 82.8%
remaining activity at 10 µM (GRK7): 49.7%
remaining activity at 10 µM (FES): 6.4%
remaining activity at 10 µM (PASK): 96.3%
remaining activity at 10 µM (MRCKb): 99.3%
remaining activity at 10 µM (PRKX): 79.2%
remaining activity at 10 µM (QSK): 30.2%
remaining activity at 10 µM (PKN1): 85.4%
remaining activity at 10 µM (LATS2): 77.4%
remaining activity at 10 µM (DAPK2): 85.7%
remaining activity at 10 µM (ASK1): 18.4%
remaining activity at 10 µM (MAP3K3): 94%
inhibition at 10 µM (CDK1/cyclinB): > 95%
remaining activity at 10 µM (CDK1/cyclinB): 2.1%
remaining activity at 10 µM (GRK5): 91.5%
remaining activity at 10 µM (CDK4/cyclinD1): 33.5%
remaining activity at 10 µM (TGFBR1): 112%
remaining activity at 10 µM (RIPK5): 67.8%
remaining activity at 10 µM (LATS1): 85%
remaining activity at 10 µM (ITK): 81.7%
remaining activity at 10 µM (LYN B): 54.4%
remaining activity at 10 µM (NLK): 24.8%
inhibition at 10 µM (PCTK3; CDK18): > 95%
remaining activity at 10 µM (PCTK3; PCTK3 (listed as CDK18 in Figure 6)): 2.5%
remaining activity at 10 µM (ARAF): 79.5%
remaining activity at 10 µM (PLK2): 107%
remaining activity at 10 µM (PRKG2): 99.5%
remaining activity at 10 µM (P38-beta): 64.7%
remaining activity at 10 µM (FLT3): 40.2%
remaining activity at 10 µM (KSR1): 100%
remaining activity at 10 µM (TBK1): 55%
remaining activity at 10 µM (MST1): 62.2%
remaining activity at 10 µM (TSSK6): 86.9%
remaining activity at 10 µM (PKCzeta): 90.2%
remaining activity at 10 µM (PRKD3): 54.3%
remaining activity at 10 µM (ROS1): 27.8%
remaining activity at 10 µM (SRPK2): 60.7%
remaining activity at 10 µM (MLK4): 114%
remaining activity at 10 µM (GRK1): 76.3%
